Results from PMC10239507, “Development of allosteric and selective CDK2 inhibitors for contraception with negative cooperativity to cyclin binding” (Nature Communications, 2023).

Legend:
Experiment in all cases: biochemical
[1] = biological target: T1, 371 kinases (kinase named in each endpoint) (Homo sapiens, UniProt Q9UQM7); conditions: CAMK2A
T1 construct: purchased Reaction Biology

[2] = biological target: T2, 371 kinases (kinase named in each endpoint) (Homo sapiens, UniProt P22612); conditions: PKACG
T2 construct: purchased Reaction Biology

[3] = biological target: T3, 371 kinases (kinase named in each endpoint) (Homo sapiens, UniProt P45983); conditions: JNK1
T3 construct: purchased Reaction Biology

[4] = biological target: T4, 371 kinases (kinase named in each endpoint) (Homo sapiens, UniProt O94804); conditions: LOK/STK10
T4 construct: purchased Reaction Biology

[5] = biological target: T5, 371 kinases (kinase named in each endpoint) (Homo sapiens, UniProt P22455); conditions: FGFR4
T5 construct: purchased Reaction Biology

[6] = biological target: T6, 371 kinases (kinase named in each endpoint) (Homo sapiens, UniProt Q9BXA7); conditions: STK22D/TSSK1
T6 construct: purchased Reaction Biology

[7] = biological target: T7, 371 kinases (kinase named in each endpoint) (Homo sapiens, UniProt Q13470); conditions: TNK1
T7 construct: purchased Reaction Biology

[8] = biological target: T8, 371 kinases (kinase named in each endpoint) (Homo sapiens, UniProt P16591); conditions: FER
T8 construct: purchased Reaction Biology

[9] = biological target: T9, 371 kinases (kinase named in each endpoint) (Homo sapiens, UniProt Q9NYY3); conditions: PLK2
T9 construct: purchased Reaction Biology

[10] = biological target: T10, 371 kinases (kinase named in each endpoint) (Homo sapiens, UniProt Q00536); conditions: CDK16/CYCLIN Y (PCTAIRE)
T10 construct: purchased Reaction Biology

[11] = biological target: T11, 371 kinases (kinase named in each endpoint) (Homo sapiens, UniProt P15056); conditions: BRAF
T11 construct: purchased Reaction Biology

[12] = biological target: T12, 371 kinases (kinase named in each endpoint) (Homo sapiens, UniProt P00519); conditions: ABL1
T12 construct: purchased Reaction Biology

[13] = biological target: T13, 371 kinases (kinase named in each endpoint) (Homo sapiens, UniProt Q6PHR2); conditions: ULK3
T13 construct: purchased Reaction Biology

[14] = biological target: T14, 371 kinases (kinase named in each endpoint) (Homo sapiens, UniProt Q8IY84); conditions: NIM1
T14 construct: purchased Reaction Biology

[15] = biological target: T15, 371 kinases (kinase named in each endpoint) (Homo sapiens, UniProt Q5S007); conditions: LRRK2
T15 construct: purchased Reaction Biology

[16] = biological target: T16, 371 kinases (kinase named in each endpoint) (Homo sapiens, UniProt P42679); conditions: CTK/MATK
T16 construct: purchased Reaction Biology

[17] = biological target: T17, 371 kinases (kinase named in each endpoint) (Homo sapiens, UniProt Q5TCY1); conditions: TTBK1
T17 construct: purchased Reaction Biology

[18] = biological target: T18, 371 kinases (kinase named in each endpoint) (Homo sapiens, UniProt P19784); conditions: CK2A2
T18 construct: purchased Reaction Biology

[19] = biological target: T19, 371 kinases (kinase named in each endpoint) (Homo sapiens, UniProt P50613); conditions: CDK7/CYCLIN H
T19 construct: purchased Reaction Biology

[20] = biological target: T20, 371 kinases (kinase named in each endpoint) (Homo sapiens, UniProt Q9H1R3); conditions: MLCK2/MYLK2
T20 construct: purchased Reaction Biology

[21] = biological target: T21, 371 kinases (kinase named in each endpoint) (Homo sapiens, UniProt Q02779); conditions: MLK2/MAP3K10
T21 construct: purchased Reaction Biology

[22] = biological target: T22, 371 kinases (kinase named in each endpoint) (Homo sapiens, UniProt Q99986); conditions: VRK1
T22 construct: purchased Reaction Biology

[23] = biological target: T23, 371 kinases (kinase named in each endpoint) (Homo sapiens, UniProt Q16288); conditions: TRKC
T23 construct: purchased Reaction Biology

[24] = biological target: T24, 371 kinases (kinase named in each endpoint) (Homo sapiens, UniProt Q8TD19); conditions: NEK9
T24 construct: purchased Reaction Biology

[25] = biological target: T25, 371 kinases (kinase named in each endpoint) (Homo sapiens, UniProt Q96NX5); conditions: CAMK1G
T25 construct: purchased Reaction Biology

[26] = biological target: T26, 371 kinases (kinase named in each endpoint) (Homo sapiens, UniProt P08069); conditions: IGF1R
T26 construct: purchased Reaction Biology

[27] = biological target: T27, 371 kinases (kinase named in each endpoint) (Homo sapiens, UniProt O95747); conditions: OSR1/OXSR1
T27 construct: purchased Reaction Biology

[28] = biological target: T28, 371 kinases (kinase named in each endpoint) (Homo sapiens, UniProt P15735); conditions: PHKG2
T28 construct: purchased Reaction Biology

[29] = biological target: T29, 371 kinases (kinase named in each endpoint) (Homo sapiens, UniProt Q86UX6); conditions: STK32C/YANK3
T29 construct: purchased Reaction Biology

[30] = biological target: T30, 371 kinases (kinase named in each endpoint) (Homo sapiens, UniProt O43293); conditions: ZIPK/DAPK3
T30 construct: purchased Reaction Biology

[31] = biological target: T31, 371 kinases (kinase named in each endpoint) (Homo sapiens, UniProt Q6P5Z2); conditions: PKN3/PRK3
T31 construct: purchased Reaction Biology

[32] = biological target: T32, 371 kinases (kinase named in each endpoint) (Homo sapiens, UniProt Q14012); conditions: CAMK1A
T32 construct: purchased Reaction Biology

[33] = biological target: T33, 371 kinases (kinase named in each endpoint) (Homo sapiens, UniProt P54764); conditions: EPHA4
T33 construct: purchased Reaction Biology

[34] = biological target: T34, 371 kinases (kinase named in each endpoint) (Homo sapiens, UniProt O15146); conditions: MUSK
T34 construct: purchased Reaction Biology

[35] = biological target: T35, 371 kinases (kinase named in each endpoint) (Homo sapiens, UniProt Q9Y2U5); conditions: MEKK2
T35 construct: purchased Reaction Biology

[36] = biological target: T36, 371 kinases (kinase named in each endpoint) (Homo sapiens, UniProt Q13464); conditions: ROCK1
T36 construct: purchased Reaction Biology

[37] = biological target: T37, 371 kinases (kinase named in each endpoint) (Homo sapiens, UniProt O95382); conditions: MEKK6
T37 construct: purchased Reaction Biology
T37 sequence (O95382 whole entry): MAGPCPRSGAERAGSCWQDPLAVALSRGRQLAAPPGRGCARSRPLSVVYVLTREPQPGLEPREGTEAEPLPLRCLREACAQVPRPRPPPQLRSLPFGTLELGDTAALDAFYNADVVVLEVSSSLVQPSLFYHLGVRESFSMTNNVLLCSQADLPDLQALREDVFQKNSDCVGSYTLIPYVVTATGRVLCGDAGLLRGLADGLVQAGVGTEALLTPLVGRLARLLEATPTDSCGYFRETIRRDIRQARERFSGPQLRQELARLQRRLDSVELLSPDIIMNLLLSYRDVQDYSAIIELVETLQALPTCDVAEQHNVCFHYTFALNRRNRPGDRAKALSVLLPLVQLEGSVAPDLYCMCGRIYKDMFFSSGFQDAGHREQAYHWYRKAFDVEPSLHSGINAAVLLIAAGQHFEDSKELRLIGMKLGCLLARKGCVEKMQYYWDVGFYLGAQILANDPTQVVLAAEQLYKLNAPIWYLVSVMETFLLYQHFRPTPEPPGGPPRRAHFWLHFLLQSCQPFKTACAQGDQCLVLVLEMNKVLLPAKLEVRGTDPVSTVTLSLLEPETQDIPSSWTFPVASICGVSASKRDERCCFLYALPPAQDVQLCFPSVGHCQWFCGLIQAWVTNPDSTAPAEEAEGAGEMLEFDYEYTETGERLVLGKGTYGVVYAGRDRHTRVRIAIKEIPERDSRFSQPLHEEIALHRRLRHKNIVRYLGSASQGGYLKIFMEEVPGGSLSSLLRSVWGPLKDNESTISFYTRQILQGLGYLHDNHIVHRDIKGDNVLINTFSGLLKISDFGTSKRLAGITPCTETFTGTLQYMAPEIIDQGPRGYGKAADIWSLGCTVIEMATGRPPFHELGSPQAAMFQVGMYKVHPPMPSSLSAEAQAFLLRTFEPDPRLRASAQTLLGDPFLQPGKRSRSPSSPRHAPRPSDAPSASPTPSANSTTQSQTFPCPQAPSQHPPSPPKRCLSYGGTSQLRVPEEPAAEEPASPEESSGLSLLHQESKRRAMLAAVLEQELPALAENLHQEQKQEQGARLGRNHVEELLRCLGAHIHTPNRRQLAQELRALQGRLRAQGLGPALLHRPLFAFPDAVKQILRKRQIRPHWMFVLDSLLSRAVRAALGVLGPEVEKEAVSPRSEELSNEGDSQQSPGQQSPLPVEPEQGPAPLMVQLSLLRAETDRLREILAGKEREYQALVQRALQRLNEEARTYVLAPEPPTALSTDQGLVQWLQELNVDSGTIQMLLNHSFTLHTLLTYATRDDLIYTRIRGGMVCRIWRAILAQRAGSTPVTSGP

T6 sequence (Q9BXA7 whole entry): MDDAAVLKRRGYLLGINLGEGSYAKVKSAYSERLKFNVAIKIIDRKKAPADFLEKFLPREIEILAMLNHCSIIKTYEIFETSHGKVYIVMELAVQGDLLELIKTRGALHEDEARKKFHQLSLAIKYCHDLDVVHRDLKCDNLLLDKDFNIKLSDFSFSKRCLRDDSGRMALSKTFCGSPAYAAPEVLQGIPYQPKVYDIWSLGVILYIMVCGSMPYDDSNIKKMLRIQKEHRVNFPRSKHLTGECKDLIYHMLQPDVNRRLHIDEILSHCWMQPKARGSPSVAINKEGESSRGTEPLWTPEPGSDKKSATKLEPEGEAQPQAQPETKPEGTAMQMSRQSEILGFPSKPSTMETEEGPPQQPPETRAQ
T35 sequence (Q9Y2U5 whole entry): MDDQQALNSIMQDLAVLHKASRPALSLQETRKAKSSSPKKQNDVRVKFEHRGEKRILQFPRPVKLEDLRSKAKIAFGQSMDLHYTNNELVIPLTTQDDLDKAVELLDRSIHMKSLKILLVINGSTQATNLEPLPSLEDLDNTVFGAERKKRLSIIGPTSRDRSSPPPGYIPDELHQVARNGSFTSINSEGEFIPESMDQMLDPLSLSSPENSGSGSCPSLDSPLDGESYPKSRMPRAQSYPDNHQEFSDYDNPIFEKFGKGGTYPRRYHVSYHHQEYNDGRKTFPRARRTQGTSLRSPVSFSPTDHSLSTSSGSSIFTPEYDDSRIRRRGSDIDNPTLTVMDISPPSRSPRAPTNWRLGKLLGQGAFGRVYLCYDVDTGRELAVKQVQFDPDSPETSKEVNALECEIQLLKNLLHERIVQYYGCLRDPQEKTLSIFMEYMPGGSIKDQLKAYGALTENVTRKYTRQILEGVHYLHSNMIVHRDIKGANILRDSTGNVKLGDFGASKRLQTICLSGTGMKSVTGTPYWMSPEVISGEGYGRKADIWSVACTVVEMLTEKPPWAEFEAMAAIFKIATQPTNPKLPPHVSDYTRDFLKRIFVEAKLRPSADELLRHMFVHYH
T27 sequence (O95747 whole entry): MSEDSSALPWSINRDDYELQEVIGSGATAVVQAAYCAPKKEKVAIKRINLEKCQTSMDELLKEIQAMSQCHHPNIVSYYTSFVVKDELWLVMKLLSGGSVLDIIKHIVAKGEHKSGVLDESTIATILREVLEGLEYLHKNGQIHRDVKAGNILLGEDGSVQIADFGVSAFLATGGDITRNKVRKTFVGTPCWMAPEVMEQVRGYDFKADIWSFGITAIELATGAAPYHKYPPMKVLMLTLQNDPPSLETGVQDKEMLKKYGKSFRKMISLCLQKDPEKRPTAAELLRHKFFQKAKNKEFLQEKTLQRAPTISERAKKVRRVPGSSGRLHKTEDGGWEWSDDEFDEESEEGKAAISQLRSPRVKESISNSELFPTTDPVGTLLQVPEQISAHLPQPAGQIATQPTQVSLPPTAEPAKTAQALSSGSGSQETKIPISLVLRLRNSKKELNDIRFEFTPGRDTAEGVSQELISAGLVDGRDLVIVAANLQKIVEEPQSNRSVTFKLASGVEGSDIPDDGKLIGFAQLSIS
T23 sequence (Q16288 32-839): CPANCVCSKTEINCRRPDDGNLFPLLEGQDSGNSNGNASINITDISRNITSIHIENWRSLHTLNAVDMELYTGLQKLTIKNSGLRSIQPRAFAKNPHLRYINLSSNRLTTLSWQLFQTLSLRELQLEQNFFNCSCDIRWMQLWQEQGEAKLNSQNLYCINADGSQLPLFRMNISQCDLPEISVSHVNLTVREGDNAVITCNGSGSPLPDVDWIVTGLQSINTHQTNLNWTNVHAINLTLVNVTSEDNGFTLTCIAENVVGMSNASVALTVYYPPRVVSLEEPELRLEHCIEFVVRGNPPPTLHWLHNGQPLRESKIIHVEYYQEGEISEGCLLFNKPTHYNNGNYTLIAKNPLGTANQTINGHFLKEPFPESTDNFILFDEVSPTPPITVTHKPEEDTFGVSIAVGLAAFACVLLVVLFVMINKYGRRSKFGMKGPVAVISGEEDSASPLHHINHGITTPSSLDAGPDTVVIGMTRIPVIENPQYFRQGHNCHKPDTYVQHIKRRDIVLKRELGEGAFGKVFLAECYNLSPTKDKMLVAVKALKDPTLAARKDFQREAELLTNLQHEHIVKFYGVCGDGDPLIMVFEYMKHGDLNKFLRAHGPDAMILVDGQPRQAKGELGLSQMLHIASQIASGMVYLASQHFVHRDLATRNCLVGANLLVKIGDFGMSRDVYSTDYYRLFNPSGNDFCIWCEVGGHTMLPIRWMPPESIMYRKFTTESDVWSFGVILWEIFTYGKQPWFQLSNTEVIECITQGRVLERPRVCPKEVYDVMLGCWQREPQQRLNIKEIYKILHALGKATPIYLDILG
T32 sequence (Q14012 whole entry): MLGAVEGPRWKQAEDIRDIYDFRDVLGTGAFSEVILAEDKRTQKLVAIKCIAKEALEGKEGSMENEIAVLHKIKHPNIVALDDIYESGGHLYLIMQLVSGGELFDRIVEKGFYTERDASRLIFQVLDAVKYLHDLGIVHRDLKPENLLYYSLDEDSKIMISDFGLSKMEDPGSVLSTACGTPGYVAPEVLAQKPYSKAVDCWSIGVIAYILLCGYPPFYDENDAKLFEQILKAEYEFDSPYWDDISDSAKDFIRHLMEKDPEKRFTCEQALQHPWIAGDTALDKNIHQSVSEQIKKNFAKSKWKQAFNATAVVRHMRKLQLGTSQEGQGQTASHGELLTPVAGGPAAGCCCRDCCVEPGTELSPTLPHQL
T33 sequence (P54764 20-986): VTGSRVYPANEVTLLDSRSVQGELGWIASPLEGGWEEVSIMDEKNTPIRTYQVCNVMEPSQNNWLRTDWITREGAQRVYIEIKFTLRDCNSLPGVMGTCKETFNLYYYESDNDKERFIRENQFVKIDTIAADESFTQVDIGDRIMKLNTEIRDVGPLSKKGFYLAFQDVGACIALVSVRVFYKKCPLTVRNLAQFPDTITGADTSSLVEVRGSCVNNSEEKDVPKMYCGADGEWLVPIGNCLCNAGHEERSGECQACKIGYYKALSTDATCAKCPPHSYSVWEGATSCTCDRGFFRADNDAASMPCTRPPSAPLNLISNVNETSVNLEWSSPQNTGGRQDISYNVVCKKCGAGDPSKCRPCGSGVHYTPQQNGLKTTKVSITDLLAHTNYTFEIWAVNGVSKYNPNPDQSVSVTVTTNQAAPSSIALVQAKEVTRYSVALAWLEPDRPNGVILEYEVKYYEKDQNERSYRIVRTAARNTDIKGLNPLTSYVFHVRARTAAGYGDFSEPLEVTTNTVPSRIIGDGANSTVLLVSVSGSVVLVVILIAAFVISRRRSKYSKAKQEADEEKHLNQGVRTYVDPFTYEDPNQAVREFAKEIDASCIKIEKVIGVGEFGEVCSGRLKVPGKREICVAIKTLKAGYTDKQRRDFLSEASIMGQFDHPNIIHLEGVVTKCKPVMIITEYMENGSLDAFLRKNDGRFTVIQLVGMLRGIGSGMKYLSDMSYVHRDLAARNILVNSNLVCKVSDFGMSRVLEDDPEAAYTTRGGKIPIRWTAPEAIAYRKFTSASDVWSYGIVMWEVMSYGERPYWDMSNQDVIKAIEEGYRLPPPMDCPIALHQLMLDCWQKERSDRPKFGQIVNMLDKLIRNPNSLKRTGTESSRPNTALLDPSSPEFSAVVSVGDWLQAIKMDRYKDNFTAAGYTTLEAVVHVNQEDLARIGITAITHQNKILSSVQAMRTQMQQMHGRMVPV

**Q.** `O=C(O)c1cc(C(F)(F)F)ccc1NCCc1c[nH]c2cc(Br)ccc12` [Compound 5, 2-((2-(6-Bromo-1H-indol-3-yl)ethyl)amino)−5-(trifluoromethyl)benzoic Acid] was tested. Which activity at 10 µM [1] did it give?
**A.** 70.2 ± 3.3%

**Q.** What about the activity at 10 µM [2] of the same compound?
**A.** 76.2 ± 2.6%

**Q.** And the activity at 10 µM [3]?
**A.** 88.4 ± 1.1%

**Q.** What about the activity at 10 µM [4] of the same compound?
**A.** 88.1 ± 0.3%

**Q.** What about the activity at 10 µM [5] of the same compound?
**A.** 63.4 ± 6.7%

**Q.** And the activity at 10 µM [6]?
**A.** 103.5 ± 0.1%

**Q.** What about the activity at 10 µM [7] of the same compound?
**A.** 94.4 ± 0.5%

**Q.** And the activity at 10 µM [8]?
**A.** 89.6 ± 2%

**Q.** And the activity at 10 µM [9]?
**A.** 67.4 ± 0.7%

**Q.** And the activity at 10 µM [10]?
**A.** 76.9 ± 0.5%

**Q.** What about the activity at 10 µM [11] of the same compound?
**A.** 98.7 ± 0.5%

**Q.** And the activity at 10 µM [12]?
**A.** 98.7 ± 0.5%

**Q.** What about the activity at 10 µM [13] of the same compound?
**A.** 89.9 ± 1.4%

**Q.** And the activity at 10 µM [14]?
**A.** 88.9 ± 1%

**Q.** And the activity at 10 µM [15]?
**A.** 99.5 ± 0.1%

**Q.** What about the activity at 10 µM [16] of the same compound?
**A.** 71.1 ± 3.8%

**Q.** And the activity at 10 µM [17]?
**A.** 103 ± 3.1%

**Q.** And the activity at 10 µM [18]?
**A.** 46.9 ± 0.5%

**Q.** What about the activity at 10 µM [19] of the same compound?
**A.** 104 ± 3.6%

**Q.** And the activity at 10 µM [20]?
**A.** 70.7 ± 0.3%

**Q.** What about the activity at 10 µM [21] of the same compound?
**A.** 74.8 ± 2.2%

**Q.** And the activity at 10 µM [22]?
**A.** 105 ± 1.5%

**Q.** What about the activity at 10 µM [23] of the same compound?
**A.** 91 ± 0.5%

**Q.** What about the activity at 10 µM [24] of the same compound?
**A.** 117 ± 3.3%

**Q.** And the activity at 10 µM [25]?
**A.** 40.8 ± 2.3%

**Q.** And the activity at 10 µM [26]?
**A.** 93.2 ± 0.1%

**Q.** And the activity at 10 µM [27]?
**A.** 59.4 ± 2.8%

**Q.** What about the activity at 10 µM [28] of the same compound?
**A.** 106.5 ± 0.1%

**Q.** What about the activity at 10 µM [29] of the same compound?
**A.** 100.2 ± 0.6%

**Q.** And the activity at 10 µM [30]?
**A.** 74.5 ± 3.3%

**Q.** What about the activity at 10 µM [31] of the same compound?
**A.** 98.3 ± 1.2%

**Q.** And the activity at 10 µM [32]?
**A.** 69.1 ± 1%

**Q.** What about the activity at 10 µM [33] of the same compound?
**A.** 94.3 ± 0.5%

**Q.** What about the activity at 10 µM [34] of the same compound?
**A.** 104.4 ± 1%

**Q.** And the activity at 10 µM [35]?
**A.** 107.9 ± 0.2%

**Q.** And the activity at 10 µM [36]?
**A.** 93.3 ± 1.1%

**Q.** What about the activity at 10 µM [37] of the same compound?
**A.** 108 ± 1.4%
